From ChEMBL document CHEMBL6182898, “Design, synthesis and bioevaluation of novel hydrazide derivatives as enhancers of immunotherapy and DNA-damage response in antitumor therapy” (Eur J Med Chem, 2025) come the findings set out here.

Broadly, the IC50 is the midpoint of a concentration-inhibition curve. Lower therefore signals inhibition by little substance. One may read the AUC(0-t) as the area under the concentration-time curve up to a stated or last time point. Read a low AUC(0-t) as less exposure. One may read the half-life as the time needed for the level to fall by half in the phase considered. Read a high half-life as slow decline. Usually clearance stands for a measure of how efficiently the substance is removed, as volume per time. Read a low clearance as a low capacity for elimination. As usually defined, the AUC(0-inf) is total exposure, with the tail of the curve extrapolated. For orientation: MRT last means a mean duration of stay, worked out from the concentration-time curve. For orientation: bioavailability means dose-corrected exposure relative to a reference, in per cent. A lower bioavailability goes with little systemic uptake.

The source made the active and inactive calls.

Series [1] concerns the target T1, Protein deacetylase HDAC6 (Homo sapiens, UniProt Q9UBN7).
T1 sequence (Q9UBN7 whole entry): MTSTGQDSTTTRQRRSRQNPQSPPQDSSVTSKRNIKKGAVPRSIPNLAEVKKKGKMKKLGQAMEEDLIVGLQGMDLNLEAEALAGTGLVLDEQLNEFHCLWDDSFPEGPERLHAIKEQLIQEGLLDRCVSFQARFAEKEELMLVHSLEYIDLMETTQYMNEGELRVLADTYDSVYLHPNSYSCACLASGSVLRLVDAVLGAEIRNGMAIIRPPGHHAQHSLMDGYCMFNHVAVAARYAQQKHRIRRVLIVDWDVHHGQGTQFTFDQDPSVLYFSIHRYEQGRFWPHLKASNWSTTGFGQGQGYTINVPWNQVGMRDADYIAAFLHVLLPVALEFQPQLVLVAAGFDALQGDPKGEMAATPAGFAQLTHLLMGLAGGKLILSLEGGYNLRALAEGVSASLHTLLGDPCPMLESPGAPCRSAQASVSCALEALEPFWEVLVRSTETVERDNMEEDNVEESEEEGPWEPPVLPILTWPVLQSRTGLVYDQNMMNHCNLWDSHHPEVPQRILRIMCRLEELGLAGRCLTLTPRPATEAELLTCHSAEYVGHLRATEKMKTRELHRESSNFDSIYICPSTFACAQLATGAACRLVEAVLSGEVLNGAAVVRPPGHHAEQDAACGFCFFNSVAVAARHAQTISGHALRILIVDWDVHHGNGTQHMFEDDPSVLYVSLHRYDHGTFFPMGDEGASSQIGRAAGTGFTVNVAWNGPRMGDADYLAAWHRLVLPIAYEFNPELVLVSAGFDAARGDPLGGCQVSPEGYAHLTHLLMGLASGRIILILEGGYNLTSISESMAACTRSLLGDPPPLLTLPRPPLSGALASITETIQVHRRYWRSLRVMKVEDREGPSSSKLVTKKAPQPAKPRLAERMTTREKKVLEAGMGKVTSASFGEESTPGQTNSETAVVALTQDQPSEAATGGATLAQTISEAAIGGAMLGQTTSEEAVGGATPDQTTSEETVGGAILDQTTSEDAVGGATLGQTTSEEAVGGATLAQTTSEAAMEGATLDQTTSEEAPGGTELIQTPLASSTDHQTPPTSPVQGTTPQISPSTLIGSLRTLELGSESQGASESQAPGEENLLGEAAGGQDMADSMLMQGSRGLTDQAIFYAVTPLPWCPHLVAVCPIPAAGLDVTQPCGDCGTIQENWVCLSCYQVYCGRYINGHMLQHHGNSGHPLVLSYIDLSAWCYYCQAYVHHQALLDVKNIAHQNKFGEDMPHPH
The series is described as follows: Inhibition of HDAC6 (unknown origin).

The subject of series [2] is B16-F10. Kind of series: Induction of antitumor immunity in mouse B16-F10 cells assessed as decrease in NCOR2 level at 2.5 to 10 uM incubated for 24 hrs by Western blot analysis. It is filed as functional, cell-based. Conditions: dose 2.5-10 µM.
Series [3] concerns the target Programmed cell death 1 ligand 1 (Mus musculus) (UniProt Q9EP73). Kind of series: Induction of PD-L1 degradation in mouse B16-F10 cells at 2 uM incubated for 24 hrs in presence of CA-074 by Western blot analysis. The class given is cell-based. On the technique in general: In western blotting, separated proteins are transferred to a membrane and probed.
Series [4] deals with 4T1. The series is described as follows: Synergistic induction of DNA damage in mouse 4T1 cells assessed as increase in gamma-H2AX level at 1 uM incubated for 24 hrs in presence of Olaparib by Western blot analysis. The class given is functional, cell-based.
Series [5] can be described thus: AUC (0 to t) in male Sprague-Dawley rat at 2 mg/kg, iv measured for 0.083 to 12 hrs by LC-MS/MS analysis. The class given is ADME, organism-based. Conditions: in vivo, time 0.083-12 hrs.
A short description of series [6]: Half life in male Sprague-Dawley rat at 2 mg/kg, iv measured for 0.083 to 12 hrs by LC-MS/MS analysis. The class given is ADME, organism-based. Particulars: in vivo, time 0.083-12 hrs.
The nature of series [7]: Clearance in male Sprague-Dawley rat at 2 mg/kg, iv measured for 0.083 to 12 hrs by LC-MS/MS analysis. The class given is ADME, organism-based. Particulars: in vivo, time 0.083-12 hrs.
Series [8] is described as follows: AUC (0 to infinity) in male Sprague-Dawley rat at 20 mg/kg, po measured for 0.083 to 12 hrs by LC-MS/MS analysis. The class given is ADME, organism-based. Conditions: in vivo, time 0.083-12 hrs.
Series [9] can be described thus: MRT (0 to t) in male Sprague-Dawley rat at 20 mg/kg, po measured for 0.083 to 12 hrs by LC-MS/MS analysis. It is filed as ADME, organism-based. Particulars: in vivo, time 0.083-12 hrs.
Series [10] is described as follows: Half life in male Sprague-Dawley rat at 20 mg/kg, po measured for 0.083 to 12 hrs by LC-MS/MS analysis. Particulars: in vivo, time 0.083-12 hrs. The class given is ADME, organism-based.
Series [11] is described as follows: Oral bioavailability in male Sprague-Dawley rat at 20 mg/kg measured for 0.083 to 12 hrs by LC-MS/MS analysis. Particulars: in vivo, time 0.083-12 hrs. The class given is ADME, organism-based.
A short description of series [12]: Toxicity in male C57BL/6J mouse implanted with mouse B16-F10 cells assessed as body weight change at 50 mg/kg, IG treated for 14 days consecutively. It is filed as organism-based. Conditions: in vivo, po, 336 h, time 14 day.
Series [13] can be described thus: Toxicity in male C57BL/6J mouse implanted with mouse B16-F10 cells assessed as histopathological damage in kidney at 50 mg/kg, IG treated for 14 days consecutively by H and E staining based analysis. Particulars: in vivo, po, 336 h, time 14 day. It is filed as organism-based.
In series [14] the test system is B16-F10. Kind of series: Induction of antitumor immunity in mouse B16-F10 cells implanted in male C57BL/6J mouse assessed as CD3+CD8+ T cell infiltration at 25 mg/kg, IG treated for 14 days consecutively in presence of NP-19 by flow cytometry (reference value: 10 %). It is filed as functional. Particulars: time 14 day. (A flow cytometer gives signals particle by particle.)

Series [15] concerns the target T2, Histone deacetylase 3 (Mus musculus) (UniProt O88895).
T2 sequence (whole entry): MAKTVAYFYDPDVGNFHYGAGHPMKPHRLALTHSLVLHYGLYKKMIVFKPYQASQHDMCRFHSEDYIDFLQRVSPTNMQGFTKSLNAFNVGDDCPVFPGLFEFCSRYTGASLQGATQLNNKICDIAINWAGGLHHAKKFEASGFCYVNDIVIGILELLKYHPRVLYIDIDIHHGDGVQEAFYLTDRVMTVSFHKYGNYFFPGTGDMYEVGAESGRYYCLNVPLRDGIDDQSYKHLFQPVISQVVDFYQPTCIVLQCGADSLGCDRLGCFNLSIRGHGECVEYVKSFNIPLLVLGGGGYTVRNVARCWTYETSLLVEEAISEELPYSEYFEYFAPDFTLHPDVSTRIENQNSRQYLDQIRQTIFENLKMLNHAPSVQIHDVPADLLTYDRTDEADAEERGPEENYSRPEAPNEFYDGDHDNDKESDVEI
Kind of series: In vivo inhibition of HDAC3 in mouse B16-F10 cells implanted in male C57BL/6J mouse assessed as increase in Ac-H3 level at 25 mg/kg, IG treated for 14 days consecutively in presence of NP-19 by immunofluorescence based analysis. The class given is functional, organism-based. Particulars: time 14.0 day.

Series [16] relates to 4T1. Kind of series: Antitumor activity against mouse 4T1 cells implanted in mouse at 50 mg/kg/day relative to control. The class given is functional. Particulars: read-out: TGI.
Series [17] deals with 4T1. Kind of series: Induction of DNA damage in mouse 4T1 cells implanted in mouse assessed as decrease in PARP level at 50 mg/kg/day by Western blot analysis. The class given is functional, organism-based.
Series [18] relates to 4T1. The series is described as follows: Induction of DNA damage in mouse 4T1 cells implanted in mouse assessed as decrease in PARP level at 50 mg/kg/day by immunofluorescence based analysis. It is filed as functional, organism-based.

Programmed cell death 1 ligand 1 (Mus musculus), sequence (Q9EP73 whole entry): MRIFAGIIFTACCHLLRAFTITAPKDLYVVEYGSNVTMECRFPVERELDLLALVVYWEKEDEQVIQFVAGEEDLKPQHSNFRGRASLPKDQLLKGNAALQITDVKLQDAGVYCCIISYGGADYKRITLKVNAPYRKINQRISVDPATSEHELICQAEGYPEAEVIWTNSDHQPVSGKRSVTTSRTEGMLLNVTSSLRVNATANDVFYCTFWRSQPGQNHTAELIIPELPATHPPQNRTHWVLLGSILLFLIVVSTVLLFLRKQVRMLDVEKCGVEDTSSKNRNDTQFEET

In series [1], `CCCNNC(=O)c1ccc(NC(=O)c2cnc(-c3ccc(OC(F)(F)F)cc3)s2)cc1` yielded an IC50 of more than 10 µM. Besides, the result in the series on B16-F10 [2] was Active.
On to `CCCNNC(=O)CCCCCCNC(=O)c1cnc(-c2ccc(NC(=O)OC(C)(C)C)cc2)s1`, for which, in [1], the IC50 was more than 10 µM. Also, the result in the series on B16-F10 [2], with 4T1 [4], with 4T1 [17] and in the series with 4T1 [18] was Active. For the same compound, in [3], the outcome was inactive. In addition, the AUC(0-t) in [5] stood at 657 ng·h/mL. Moreover, the half-life in series [6] is 2.21 h; in series [10], 2.84 h. This compound also showed a clearance in series [7] of 53.8 mL/min/kg. The AUC(0-inf) in series [8] was 32.1 ng·h/mL. The MRT last in series [9] is 2.57 h. The compound further came in with a bioavailability in series [11] of 0.49%. In addition, the values for the Activity result (in [12]; in [13]; in the series on B16-F10 [14]) were “Non-toxic”, “Non-toxic” and 38%, respectively. Besides, the inhibition result in series [15] was “Active”. Also, the inhibition in vivo at 50 mg/kg/day in the series with 4T1 [16] came out at 64%.
